According to paper PMC11873566 (Acta Pharmaceutica Sinica. B, 2024):

Molecular target: alpha-enolase (ENO1) (Homo sapiens, UniProt P06733)
Assay: MST with NT-647-NHS labelled recombinant ENO1
Assay type: binding

Chain of alpha-enolase (ENO1) (P06733 2-434): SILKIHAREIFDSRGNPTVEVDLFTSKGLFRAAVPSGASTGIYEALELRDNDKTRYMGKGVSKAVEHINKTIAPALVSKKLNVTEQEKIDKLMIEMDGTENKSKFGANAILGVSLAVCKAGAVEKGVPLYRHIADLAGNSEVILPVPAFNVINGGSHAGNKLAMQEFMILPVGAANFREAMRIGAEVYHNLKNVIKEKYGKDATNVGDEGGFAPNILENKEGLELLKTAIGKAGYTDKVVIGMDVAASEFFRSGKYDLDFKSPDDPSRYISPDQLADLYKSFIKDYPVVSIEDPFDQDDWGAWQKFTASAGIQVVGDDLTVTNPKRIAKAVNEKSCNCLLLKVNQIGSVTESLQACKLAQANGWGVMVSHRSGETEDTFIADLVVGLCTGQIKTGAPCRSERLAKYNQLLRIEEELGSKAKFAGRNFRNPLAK

Kd: 15 µM
SMILES: O=c1cc(-c2ccccc2)oc2cc(O)cc(O)c12 [compound 1, chrysin]
